Experimental data from US12258477B2, “Silicon-substituted rhodamine dyes and dye conjugates” (Life Technologies Corporation, priority 2018, dated 2025).
Entries after “also recorded” stand apart in the source; their conditions may differ.

Key:
[1] = Excitation and emission maxima of compounds dissolved in solvents; assay type: physicochemical
Procedure: Certain compounds were tested when dissolved in solvents. Three replicates were performed to determine the excitation and emission maxima.

Live HeLa cells [2] = assay: Live cell nuclear staining, fluorescence microscopy vs SiR-Hoechst (Example 2); assay type: cell-based; details: 1 μM and 2 μM
Procedure: The fluorescence intensity of Compound 4 was compared to SiR-Hoechst (Spirochrome, Switzerland) using fluorescence microscopy. Live HeLa cells were stained with SiR-Hoechst or Compound 4 at 1 μM or 2 μM for 30 minutes at 37° C. After washing with LCIS buffer to remove excess dye, images from 5 replicates were collected using the Cy5 channel of a fluorescence microscope and analyzed using HCS Studio software. Representative images of cells are shown in FIGS. 3A-3B (stained with SiR-Hoechst) and FIGS. 3C-3D (stained with Compound 4). […] The mean nuclear signal intensity was 48% higher in the cells stained with Compound 4 than in the cells stained with SiR-Hoechst, based on averaging the ratios of fluorescence intensity at 1 μM and 2 μM.

[3] = Fluorescence characteristics, dye only dissolved in water; assay type: physicochemical; details: for Emission in water (λem) / absorption in water (λabs): Table 6, in water; for shift of absorption maxima to blue when each vinyl group was changed to a methyl: relative to Compound 11
Procedure: (§1) The fluorescence characteristics of various disclosed compounds and ALEXA FLUOR™ 647 dye (AF647) dissolved in water (dye only) or as goat anti-mouse (GAM) IgG conjugates dissolved in phosphate buffered saline (PBS) were determined. Three replicates were performed to determine the excitation and emission maxima and quantum yield. Quantum yield was measured for the dye only samples.
Experiments were performed to examine the effect of different SiR substitution patterns on absorption maxima using Compounds 10A, 11, 12, and 13. One or both of the vinyl groups of Compound 11 are replaced with methyl in Compounds 10A and 12, respectively. In Compound 13, one methyl group on each of the two exocyclic amines was eliminated relative to Compound 12. […] A 30 nm shift was observed when one methyl group on each of the two exocyclic amines was eliminated (Table 6). Therefore, modification of SiR dyes using groups linked to the SiR moiety through the Si have a smaller effect than the removal of methyl groups.

[4] = Fluorescence characteristics of goat anti-mouse (GAM) IgG conjugates in PBS; assay type: physicochemical; details: for Max Abs / Max Em: GAM IgG conjugate in PBS; for Absorption of IgG conjugates / Emission of IgG conjugates: Table 6, IgG conjugates in PBS
Procedure: as §1
The effect of conjugation of an SiR, in this example Compounds 8, 10A, and 12, to IgG on absorbance (shown in FIG. 11A) and on emission (shown in FIG. 11B) maxima were compared with IgG-AF647. The absorption and emission maxima of the SiR-conjugates (665 nm/690 nm) are approximately 20 nm red-shifted compared with AF647 conjugate. The emission maximum shifted 15 nm to red.

A549 cells = assay: Photobleaching of dye-labeled secondary antibody conjugates in fixed cells without anti-fade medium; assay type: cell-based; details: GAM antibody conjugates (13 DOL 4.7, 14 DOL 4.0, AF647 DOL 4.9); over 700 seconds exposure, no anti-fade medium
Procedure: A549 cells were plated at a density of 5,000 cells per well on Greiner 96 well plates and allowed to adhere overnight. The following day, they were treated for two hours at 37° C. with 50 μM etoposide to induce phosphorylation of pH2AX for antibody probing, then fixed for 20 minutes at room temperature in 4% PFA, prepared in PBS. After fixation, cells were rinsed 3× in PBS and permeabilized for 20 minutes with 0.1% Triton X-100, prepared in PBS. Following Triton treatment, cells were washed 3× in PBS and placed in blocking solution, made with 3% BSA in PBS. Each plate was treated with primary antibody, prepared in blocking solution at 5 μg/mL, either […]. Following incubation with primary antibody, cells were washed 3× in PBS and stored in blocking solution before probing with secondary antibody. Secondary antibody labeled with Compound 13 (DOL 4.7); Compound 14 (DOL 4.0) or AF647 (DOL 4.9) was prepared from 5 μg/mL in blocking solution and cells were incubated for one hour at room temperature before washing 3× in PBS and moving plates to the CX-5 CellInsight for quantification of signal. The fluorescent signal data was collected every second for over 700 seconds' period. […]
Fluorescence intensity was monitored in samples mounted without anti-fade medium over a period of about 12 minutes of exposure to excitatory light.

tubulin [5] = assay: Immunofluorescence tubulin staining with dye-labeled antibody conjugates vs AF647 (Example 9); assay type: cell-based, mouse
Procedure: The fluorescence intensity of SiR conjugates, Compound 10A (DOL=15) and Compound 10A (DOL=10), where DOL is the degree of labeling, were compared to an AF647 conjugate using fluorescence microscopy. Live mouse cells were stained with mouse anti-tubulin conjugated to AF647 (shown in FIG. 12A), or mouse anti-tubulin conjugated with Compound 10A (DOL=15 shown in FIG. 12B) at increasing concentrations for 60 minutes at 25° C. After washing with PBS buffer to remove excess dye, images were collected using the Cy5 channel of a fluorescence microscope and analyzed using integrated software. […] The SiR dyes gave images 6-8 fold dimmer that AF647 in the Cy5 channel, consistent with the shifted maxima discussed above. […] Little to no photobleaching was observed during imaging.

Fixed HeLa cells = assay: Fixed cell nuclear staining and photostability vs TO-PRO-3 (Example 4); assay type: cell-based; details: 1 μM, Cy5 channel
Procedure: The fluorescence intensity and photostability of Compound 7 were compared with TO-PRO-3, a fixed cell nucleic acid stain with far-red fluorescence. Fixed HeLa cells were stained with 1 μM Compound 7 or TO-PRO-3 for 30 minutes at RT and prepared for imaging using the Cy5 channel of a fluorescence microscope.

Live HeLa cells [6] = assay: Live cell nuclear staining with ESP-SiR isomers, HeLa (Example 12); assay type: cell-based; details: 1 μM, 30 min 37 °C
Procedure: The fluorescence intensity of each isomer of Compound 4 (Compound 4B and Compound 4C) was compared using fluorescence microscopy. A DMSO stock solution (1 mM) was used to prepare solutions of each isomer to a final concentration of 5, 2.5, 1.25 and 0.6 μM in PBS containing probenecid.
Live HeLa or A549 cells were stained with each concentration of isomer for 30 minutes at 37° C. After washing with LCIS buffer to remove excess dye, images from 5 replicates were collected using the Cy5 channel of a fluorescence microscope and analyzed using HCS Studio software. […] The mean nuclear signal intensity was almost 2-fold higher in both cell types stained with Compound 4B than in the cells stained with Compound 4C at each of the concentrations tested.
The fluorescence intensity of Compound 4B and 4C was compared to SiR-Hoechst (Spirochrome, Switzerland) using fluorescence microscopy. Live HeLa cells were stained with SiR-Hoechst or Compound 4B or 4C at 1 μM for 30 minutes at 37° C. After washing with LCIS buffer to remove excess dye, images from 5 replicates were collected using the Cy5 and D API channels of a fluorescence microscope and analyzed using HCS Studio software.

tubulin [7] = assay: Tubulin staining of live cells with docetaxel probes vs SiR-Taxol (Examples 3, 13); assay type: cell-based; details: live HeLa, 0.5 μM, 30 min 37 °C
Procedure: The fluorescence intensity of Compound 5 (a tubulin probe using docetaxel as the target-binding moiety) was compared to SiR-Taxol (Spirochrome, Switzerland). Live HeLa cells were stained with 0.5 μM Compound 5 or SiR-Taxol for 30 minutes at 37° C. and prepared for imaging. Images are shown in FIGS. 4A-4B (stained with Compound 5), and FIGS. 4C-4D (stained with SiR-Taxol).
The fluorescence intensity of two diasteromers of Compound 5 and a mixture of two isomers was compared to SiR-Taxol (Spirochrome, Switzerland). Live HeLa cells were stained with 0.5 μM of each compound for 30 minutes at 37° C. and prepared for imaging.

Max Abs ([3]; Dye Only in water)	Max Em ([3]; Dye Only in water)	Quantum Yield ([3]; Dye Only in water)	Quantum Yield ([3]; Table 6)	Emission in water (λem) [3]	absorption in water (λabs) [3]	Compound	Max Abs [4]	Max Em [4]	Absorption of IgG conjugates [4]	Emission of IgG conjugates [4]	also measured
						CN(C)c1ccc2c(c1)[Si](C)(C)C1=CC(=[N+](C)C)C=CC1=C2c1ccccc1C(=O)N1CCC(C(=O)O)CC1 [Compound 7A]					Max Abs ([1]; Solvent MeOH): 657 nm; Max Em ([1]; Solvent MeOH): 682 nm
						CN1CCN(c2ccc3[nH]c(-c4ccc5[nH]c(-c6ccc(OCCCCNC(=O)CCSCC[Si]7(C)C8=CC(=[N+](C)C)C=CC8=C(c8ccccc8C(=O)[O-])c8ccc(N(C)C)cc87)cc6)nc5c4)nc3c2)CC1 (stereo not shown) [Compound 4]					mean nuclear signal intensity, higher than in cells stained with SiR-Hoechst (Live HeLa cells [2]; live HeLa, 30 min 37 °C, Cy5 channel, averaged ratios of fluorescence intensity): 48%; staining brightness compared with SiR-Hoechst (Live HeLa cells [2]; live cells): noticeably brighter
630 nm	642 nm	0.5	50%	642 nm	630 nm	Si,Si-dimethyl-N, N-dimethyl-SiR [Compound 13]	635 nm	655 nm	635 nm	655 nm	shift of absorption maxima when one methyl group on each of the two exocyclic amines was eliminated ([3]; relative to Compound 12): 30 nm; resistance to photobleaching (A549 cells): substantially resistant to photobleaching; also recorded: much more resistant to photobleaching
			41%	678 nm	666 nm	Si-vinyl-Si-methyl-N,N-tetramethyl-SiR [Compound 10A]			668 nm	688 nm	shift of absorption maxima to blue when each vinyl group was changed to a methyl [3]: about 5 nm; photobleaching during imaging / photostability vs AF647 (tubulin [5]): better photostability than AF647; target specificity, off-target or background fluorescence (tubulin [5]): no off-target or background fluorescence; brightness compared with AF647 (tubulin [5]; Cy5 channel): less bright than AF647
						C[n+]1c(/C=C/C=C2\C=CN(CCC[N+](C)(C)C)c3ccccc32)sc2ccccc21 [TO-PRO-3, reference compound]					fluorescence after a 1 minute exposure to excitation light (Fixed HeLa cells): little to no fluorescence was observable; also recorded: more diminished
670 nm	683 nm	0.38	38%	683 nm	670 nm	C=C[Si]1(C=C)c2cc(N(C)C)ccc2C2(OC(=O)c3ccccc32)c2ccc(N(C)C)cc21 [Compound 11, Si,Si-Divinyl-N,N-tetramethyl-SiR]	671 nm	693 nm	671 nm	692 nm	
661 nm	673 nm	0.45	45%	673 nm	661 nm	Si,Si-dimethyl-N, N-tetramethyl-SiR [Compound 12]	662 nm	681 nm	664 nm	683 nm	shift of absorption maxima to blue when each vinyl group was changed to a methyl [3]: about 5 nm
						CN1CCN(c2ccc3nc(-c4ccc5nc(-c6ccc(OCCCCNC(=O)c7ccc(C(=O)[O-])c(C8=C9C=CC(=[N+](C)C)C=C9[Si](C)(C)c9cc(N(C)C)ccc98)c7)cc6)[nH]c5c4)[nH]c3c2)CC1 [SiR-Hoechst]					signal on the DAPI channel (Live HeLa cells [6]): almost no signals were observed
						CC(=O)O[C@@]12CO[C@@H]1C[C@H](O)[C@@]1(C)C(=O)[C@H](O)C3=C(C)[C@@H](OC(=O)[C@H](O)[C@@H](NC(=O)CCCCCNC(=O)CCSCC[Si]4(C)C5=CC(=[N+](C)C)C=CC5=C(c5ccccc5C(=O)[O-])c5ccc(N(C)C)cc54)c4ccccc4)C[C@@](O)([C@@H](OC(=O)c4ccccc4)C12)C3(C)C (stereo partly shown) [Compound 5]					fluorescence signal compared with SiR-Taxol (tubulin [7]): brighter signal than cells stained with SiR-Taxol; Max Abs ([1]; Solvent MeOH/HCl): 650 nm; Max Em ([1]; Solvent MeOH/HCl): 676 nm
						CN1CCN(c2ccc3[nH]c(-c4ccc5[nH]c(-c6ccc(OCCCCNC(=O)C7CCN(C(=O)c8ccccc8C8=C9C=CC(=[N+](C)C)C=C9[Si](C)(C)c9cc(N(C)C)ccc98)CC7)cc6)nc5c4)nc3c2)CC1 [Compound 7]					staining brightness, Compound 7 vs TO-PRO-3 (Fixed HeLa cells; 30 min RT): unexpectedly brighter than TO-PRO-3 staining; fluorescence after a 1 minute exposure to excitation light (Fixed HeLa cells): still retained substantial fluorescence; Max Abs ([1]; Solvent TE): 672 nm; Max Em ([1]; Solvent TE): 678 nm
